Measurements from US20230271964A1, “5-AMINO-8-(4-PYRIDYL)-[1,2,4]TRIAZOLO[4,3-C]PYRIMIDIN-3-ONE COMPOUNDS FOR USE AGAINST CANCER” (ASTRAZENECA AB, priority 2020, published 2023).

Columns and labels:
[1] = molecular target: human adenosine A1 receptor (Homo sapiens (Human), UniProt P30542); assay: Adenosine receptor inhibition binding assay, [3H]DPCPX, A1 receptor membranes; settings: 1 nM [3H]DPCPX, 25° C., 1 h; Ki from IC50 by Cheng-Prusoff
Experimental: (§1) Inhibition binding assays were performed using 0.2 µg of membranes prepared from HEK293 cells infected with BacMam human adenosine A2A receptor or 1.4 µg of membranes prepared from HEK293 cells infected with BacMam human adenosine A1 receptor. Membranes were incubated in 50 mM Tris-HCl (HEK293-hA2A; pH 7.4) or 50 mM Tris-HCl, 100 mM NaCl, 10 mM MgCl2 (CHO-hA1; pH 7.4) in the presence of varying concentrations of test compound and 1 nM [^3H]ZM241385 (HEK293-hA2A) or [^3H]DPCPX (CHO-hA1) at 25° C. for 1 h. The assay was then terminated by rapid filtration onto GF/B grade Unifilter plates using a TomTec cell harvester, followed by 5 × 0.5 ml washes with ddH2O. Nonspecific binding was defined in the presence of 1 µM CGS 15943 (HEK293-hA2A) or 1 µM DPCPX (CHO-hA1). Bound radioactivity was determined by liquid scintillation counting and inhibition curves were analysed using a four-parameter logistic equation. IC50 values were converted to Ki values with the Cheng-Prusoff equation using a KD value derived from saturation binding studies.

[2] = molecular target: human adenosine A2A receptor (Homo sapiens (Human), UniProt P29274); assay: Adenosine receptor inhibition binding assay, [3H]ZM241385, HEK293 A2A receptor membranes; settings: 1 nM [3H]ZM241385, HEK293-hA2A membranes, 25° C., 1 h; Ki from IC50 by Cheng-Prusoff
Experimental: as §1

human adenosine A2A receptor, sequence (P29274 whole entry): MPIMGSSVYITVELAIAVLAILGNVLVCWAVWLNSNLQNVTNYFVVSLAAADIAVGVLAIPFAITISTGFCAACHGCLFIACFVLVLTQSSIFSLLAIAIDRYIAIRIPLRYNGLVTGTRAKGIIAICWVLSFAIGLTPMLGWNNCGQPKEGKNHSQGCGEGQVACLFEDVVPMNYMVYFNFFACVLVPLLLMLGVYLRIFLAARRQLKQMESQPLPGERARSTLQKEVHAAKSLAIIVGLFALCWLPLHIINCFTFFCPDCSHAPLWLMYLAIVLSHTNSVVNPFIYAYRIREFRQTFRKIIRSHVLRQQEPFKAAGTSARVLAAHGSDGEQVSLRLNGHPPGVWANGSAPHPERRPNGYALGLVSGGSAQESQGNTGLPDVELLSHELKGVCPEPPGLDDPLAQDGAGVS
human adenosine A1 receptor, sequence (P30542 whole entry): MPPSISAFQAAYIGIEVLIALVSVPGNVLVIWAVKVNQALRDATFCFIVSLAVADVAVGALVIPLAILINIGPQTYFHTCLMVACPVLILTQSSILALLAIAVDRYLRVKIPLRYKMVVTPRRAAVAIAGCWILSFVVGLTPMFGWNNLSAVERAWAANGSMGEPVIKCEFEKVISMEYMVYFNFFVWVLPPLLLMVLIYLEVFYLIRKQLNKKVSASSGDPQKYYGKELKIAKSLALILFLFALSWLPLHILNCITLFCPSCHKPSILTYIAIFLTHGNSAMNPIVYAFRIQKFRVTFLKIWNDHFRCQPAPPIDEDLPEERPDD

Row | Compound | A1 pKi [1] | A2A pKi [2]
1 | Cc1cc(-c2c(-c3ccccc3)nc(N)n3c(=O)n(CCn4cccn4)nc23)cc(C)n1 [Example 1-1, 5-amino-8-(2,6-dimethyl-4-pyridyl)-7-phenyl-2-(2-pyrazol-1-ylethyl)-[1,2,4]triazolo[4,3-c]pyrimidin-3-one] | 6.2 | 7.5
2 | Cc1cc(-c2c(-c3ccccc3)nc(N)n3c(=O)n(CCc4nccn4C)nc23)cc(C)n1 [Example 1-2, 5-amino-8-(2,6-dimethyl-4-pyridyl)-2-[2-(1-methylimidazol-2-yl)ethyl]-7-phenyl-[1,2,4]triazolo[4,3-c]pyrimidin-3-one] | 6.1 | 8.2
3 | Cc1cc(-c2c(-c3ccccc3)nc(N)n3c(=O)n(CCc4ncc[nH]4)nc23)cc(C)n1 [Example 1-3, 5-amino-8-(2,6-dimethyl-4-pyridyl)-2-[2-(1H-imidazol-2-yl)ethyl]-7-phenyl-[1,2,4]triazolo[4,3-c]pyrimidin-3-one] | 5.9 | 7.9
4 | Cc1cc(-c2c(-c3ccccc3)nc(N)n3c(=O)n(CCc4nnn[nH]4)nc23)cc(C)n1 [Example 1-4, 5-amino-8-(2,6-dimethyl-4-pyridyl)-7-phenyl-2-[2-(1H-tetrazol-5-yl)ethyl]-[1,2,4]triazolo[4,3-c]pyrimidin-3-one] | <5.4 | 6.4
5 | Cc1cc(-c2c(-c3ccccc3)nc(N)n3c(=O)n(CCc4nnn(C)n4)nc23)cc(C)n1 [Example 1-6, 5-amino-8-(2,6-dimethyl-4-pyridyl)-2-[2-(2-methyltetrazol-5-yl)ethyl]-7-phenyl-[1,2,4]triazolo[4,3-c]pyrimidin-3-one] | 5.7 | 7.2
6 | CCn1nccc1CCn1nc2c(-c3cc(C)nc(C)c3)c(-c3ccccc3)nc(N)n2c1=O [Example 1-7, 5-amino-8-(2,6-dimethyl-4-pyridyl)-2-[2-(2-ethylpyrazol-3-yl)ethyl]-7-phenyl-[1,2,4]triazolo[4,3-c]pyrimidin-3-one] | 6.6 | 8.0
7 | Cc1cc(-c2c(-c3ccccc3)nc(N)n3c(=O)n(C(C)c4cccs4)nc23)cc(C)n1 (stereo not drawn) [Example 1-8, 5-amino-8-(2,6-dimethyl-4-pyridyl)-7-phenyl-2-[1-(2-thienyl)ethyl]-[1,2,4]triazolo[4,3-c]pyrimidin-3-one] | 6.7 | 7.8
8 | Cc1cc(-c2c(-c3ccccc3)nc(N)n3c(=O)n(Cc4ncco4)nc23)cc(C)n1 [Example 1-9, 5-amino-8-(2,6-dimethyl-4-pyridyl)-2-(oxazol-2-ylmethyl)-7-phenyl-[1,2,4]triazolo[4,3-c]pyrimidin-3-one] | 7.0 | 9.1
9 | Cc1cc(-c2c(-c3ccccc3)nc(N)n3c(=O)n(Cc4cocn4)nc23)cc(C)n1 [Example 1-10, 5-amino-8-(2,6-dimethyl-4-pyridyl)-2-(oxazol-4-ylmethyl)-7-phenyl-[1,2,4]triazolo[4,3-c]pyrimidin-3-one] | 6.8 | 9.2
10 | Cc1cc(-c2c(-c3ccccc3)nc(N)n3c(=O)n(Cc4nccn4C)nc23)cc(C)n1 [Example 1-11, 5-amino-8-(2,6-dimethyl-4-pyridyl)-2-[(1-methylimidazol-2-yl)methyl]-7-phenyl-[1,2,4]triazolo[4,3-c]pyrimidin-3-one] | 7.8 | 9.8
11 | Cc1cc(-c2c(-c3ccccc3)nc(N)n3c(=O)n(Cc4ccnn4C)nc23)cc(C)n1 [Example 1-12, 5-amino-8-(2,6-dimethyl-4-pyridyl)-2-[(2-methylpyrazol-3-yl)methyl]-7-phenyl-[1,2,4]triazolo[4,3-c]pyrimidin-3-one] | 7.1 | 9.0
12 | Cc1cc(-c2c(-c3ccccc3)nc(N)n3c(=O)n(Cc4ccon4)nc23)cc(C)n1 [Example 1-13, 5-amino-8-(2,6-dimethyl-4-pyridyl)-2-(isoxazol-3-ylmethyl)-7-phenyl-[1,2,4]triazolo[4,3-c]pyrimidin-3-one] | 6.8 | 8.9
13 | Cc1cc(-c2c(-c3ccccc3)nc(N)n3c(=O)n(Cc4coc(C)n4)nc23)cc(C)n1 [Example 1-15, 5-amino-8-(2,6-dimethyl-4-pyridyl)-2-[(2-methyloxazol-4-yl)methyl]-7-phenyl-[1,2,4]triazolo[4,3-c]pyrimidin-3-one] | 6.7 | 8.9
14 | Cc1cc(-c2c(-c3ccccc3)nc(N)n3c(=O)n(Cc4nnc(C)o4)nc23)cc(C)n1 [Example 1-17, 5-amino-8-(2,6-dimethyl-4-pyridyl)-2-[(5-methyl-1,3,4-oxadiazol-2-yl)methyl]-7-phenyl-[1,2,4]triazolo[4,3-c]pyrimidin-3-one] | 6.2 | 8.2
15 | Cc1cc(-c2c(-c3ccccc3)nc(N)n3c(=O)n(Cc4cncn4C)nc23)cc(C)n1 [Example 1-18, 5-amino-8-(2,6-dimethyl-4-pyridyl)-2-[(3-methylimidazol-4-yl)methyl]-7-phenyl-[1,2,4]triazolo[4,3-c]pyrimidin-3-one] | 6.9 | 8.5
16 | Cc1cc(-c2c(-c3ccccc3)nc(N)n3c(=O)n(Cc4nonc4C)nc23)cc(C)n1 [Example 1-19, 5-amino-8-(2,6-dimethyl-4-pyridyl)-2-[(4-methyl-1,2,5-oxadiazol-3-yl)methyl]-7-phenyl-[1,2,4]triazolo[4,3-c]pyrimidin-3-one] | 7.2 | 9.6
17 | Cc1cc(-c2c(-c3ccccc3)nc(N)n3c(=O)n(Cc4noc(C)n4)nc23)cc(C)n1 [Example 1-20, 5-amino-8-(2,6-dimethyl-4-pyridyl)-2-[(5-methyl-1,2,4-oxadiazol-3-yl)methyl]-7-phenyl-[1,2,4]triazolo[4,3-c]pyrimidin-3-one] | 6.6 | 8.7
18 | Cc1cc(-c2c(-c3ccccc3)nc(N)n3c(=O)n(Cc4cnc[nH]4)nc23)cc(C)n1 [Example 1-23, 5-amino-8-(2,6-dimethyl-4-pyridyl)-2-(1H-imidazol-5-ylmethyl)-7-phenyl-[1,2,4]triazolo[4,3-c]pyrimidin-3-one] | 6.6 | 8.3
19 | Cc1cc(-c2c(-c3ccccc3)nc(N)n3c(=O)n(C[C@@H]4CCCO4)nc23)cc(C)n1 [Example 2-17, 5-amino-8-(2,6-dimethyl-4-pyridyl)-7-phenyl-2-[[(2S)-tetrahydrofuran-2-yl]methyl]-[1,2,4]triazolo[4,3-c]pyrimidin-3-one] |  | 8.6
20 | Cc1cc(-c2c(-c3ccccc3)nc(N)n3c(=O)n(C[C@H]4C[C@@H](O)CN4C)nc23)cc(C)n1 [Example 2-24, 5-amino-8-(2,6-dimethyl-4-pyridyl)-2-[[(2R,4R)-4-hydroxy-1-methyl-pyrrolidin-2-yl]methyl]-7-phenyl-[1,2,4]triazolo[4,3-c]pyrimidin-3-one] |  | 8.8
21 | Cc1cc(-c2c(-c3ccccc3)nc(N)n3c(=O)n(C[C@@H]4C[C@H](O)CN4C)nc23)cc(C)n1 [Example 2-25, 5-amino-8-(2,6-dimethyl-4-pyridyl)-2-[[(2S,4S)-4-hydroxy-1-methyl-pyrrolidin-2-yl]methyl]-7-phenyl-[1,2,4]triazolo[4,3-c]pyrimidin-3-one] |  | 8.8
